# Source: US20070191420A1, “Kinase inhibitors” (Devgen NV, priority 2004, published 2007)
# Where a name gives a salt, the structure may show the parent alone.
# Columns and labels:
# Experiment in all cases: Fluorescence polarization (FP) PKC inhibition assay, Protein Kinase C Assay Kit, Red (Invitrogen)
# Type in all cases: biochemical
# [1] = target: T1, PKC epsilon (Homo sapiens, UniProt Q02156); conditions: enzyme 10 ng/ml, ATP 2.5 μM, substrate […] 1 μM
# T1 construct: purchased Invitrogen 6906
# T1 sequence (Q02156 1-737): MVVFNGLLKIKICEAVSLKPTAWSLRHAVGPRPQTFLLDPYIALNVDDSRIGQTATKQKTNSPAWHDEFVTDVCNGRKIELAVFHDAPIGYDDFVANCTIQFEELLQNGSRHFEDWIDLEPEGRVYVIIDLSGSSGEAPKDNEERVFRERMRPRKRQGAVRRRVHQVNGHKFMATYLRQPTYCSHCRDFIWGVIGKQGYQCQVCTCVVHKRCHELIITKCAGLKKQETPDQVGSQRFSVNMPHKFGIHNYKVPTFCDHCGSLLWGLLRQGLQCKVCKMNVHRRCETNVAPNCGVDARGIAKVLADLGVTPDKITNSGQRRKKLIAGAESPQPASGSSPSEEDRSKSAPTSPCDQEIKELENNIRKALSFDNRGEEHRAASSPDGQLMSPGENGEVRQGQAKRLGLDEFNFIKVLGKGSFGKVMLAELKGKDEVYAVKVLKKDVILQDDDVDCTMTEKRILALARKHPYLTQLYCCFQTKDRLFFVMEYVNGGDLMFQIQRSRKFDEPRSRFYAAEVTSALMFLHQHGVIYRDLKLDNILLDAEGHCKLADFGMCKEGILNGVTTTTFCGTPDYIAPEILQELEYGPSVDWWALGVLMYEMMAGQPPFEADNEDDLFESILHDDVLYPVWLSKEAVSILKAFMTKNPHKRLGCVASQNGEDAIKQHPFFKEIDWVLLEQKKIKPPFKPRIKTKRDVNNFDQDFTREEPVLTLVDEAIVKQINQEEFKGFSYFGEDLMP
# Procedure: (§1) The substrate used was […]
# (§2) To perform the assay, 2 μl of a solution of the compound to be tested in DMSO (at each concentration) was added to 6 μl of a solution of the enzyme in 10 mM HEPES, 5 mM dithiotreitol, 0.1% Triton X-100, pH 7,4.
# (§3) After incubating for 30 minutes at room temperature, 4 μl of a mixture of ATP and the protein substrate in 60 mM HEPES (pH7.4), 15 mM MgCl2, 0.3 mM CaCl2, 0.06% NP40 was added.
# (§4) After incubating for 80 minutes at room temperature, 3 μl of a mix solution of 500 mM EDTA (stop solution) and the Rhodamine-based PKC Red Tracer (from the Protein Kinase C Assay Kit) in BGG/phosphate buffer (pH7.4) with 0.02% NaN3 and 0.1% Triton X-100 was added and 5 μl of a the Anti-Phosphoserine antibody (also from the Protein Kinase C Assay Kit) in BGG/phosphate buffer (pH7.4) with 0.02% NaN3.
# (§5) The results were fitted to a curve using the XL-Fit algorithm and IC50 values were calculated for each fitted curve, again using the XL-Fit algorithm.
# [2] = target: T2, PKC gamma (Homo sapiens, UniProt P05129); conditions: enzyme 20 ng/ml, ATP 2.5 μM, substrate […] 1 μM
# T2 construct: purchased Invitrogen 9343
# Procedure: as §1, §2, §3, §4, §5
# [3] = target: T3, PKC theta (Homo sapiens, UniProt Q04759); conditions: enzyme 20 ng/ml, ATP 2.5 μM, substrate […] 1 μM
# T3 construct: purchased Invitrogen 7101
# T3 sequence (Q04759 whole entry): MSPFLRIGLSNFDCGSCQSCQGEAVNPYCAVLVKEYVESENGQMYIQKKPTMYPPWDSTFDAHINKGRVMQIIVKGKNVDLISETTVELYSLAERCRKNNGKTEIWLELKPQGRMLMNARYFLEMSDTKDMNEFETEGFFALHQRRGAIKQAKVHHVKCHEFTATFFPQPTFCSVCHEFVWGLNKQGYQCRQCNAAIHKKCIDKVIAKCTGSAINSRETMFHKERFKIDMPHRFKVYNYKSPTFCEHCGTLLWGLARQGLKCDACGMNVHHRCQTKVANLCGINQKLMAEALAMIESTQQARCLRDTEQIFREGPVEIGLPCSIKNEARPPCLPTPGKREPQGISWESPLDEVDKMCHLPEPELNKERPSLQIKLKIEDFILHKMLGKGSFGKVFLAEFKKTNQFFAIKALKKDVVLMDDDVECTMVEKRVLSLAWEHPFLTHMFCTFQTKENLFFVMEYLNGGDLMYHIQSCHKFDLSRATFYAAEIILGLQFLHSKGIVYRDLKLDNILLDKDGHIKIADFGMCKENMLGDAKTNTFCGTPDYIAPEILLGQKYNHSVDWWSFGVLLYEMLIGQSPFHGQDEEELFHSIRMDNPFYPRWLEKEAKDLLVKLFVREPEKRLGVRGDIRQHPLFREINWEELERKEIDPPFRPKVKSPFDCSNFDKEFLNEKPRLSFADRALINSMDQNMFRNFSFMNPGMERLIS
# Procedure: as §1, §2, §3, §4, §5
# [4] = target: T4, PKC zeta (Homo sapiens, UniProt Q05513); conditions: enzyme 20 ng/ml, ATP 2.5 μM, substrate […] 1 μM
# T4 construct: purchased Invitrogen 9232
# T4 sequence (Q05513 1-592): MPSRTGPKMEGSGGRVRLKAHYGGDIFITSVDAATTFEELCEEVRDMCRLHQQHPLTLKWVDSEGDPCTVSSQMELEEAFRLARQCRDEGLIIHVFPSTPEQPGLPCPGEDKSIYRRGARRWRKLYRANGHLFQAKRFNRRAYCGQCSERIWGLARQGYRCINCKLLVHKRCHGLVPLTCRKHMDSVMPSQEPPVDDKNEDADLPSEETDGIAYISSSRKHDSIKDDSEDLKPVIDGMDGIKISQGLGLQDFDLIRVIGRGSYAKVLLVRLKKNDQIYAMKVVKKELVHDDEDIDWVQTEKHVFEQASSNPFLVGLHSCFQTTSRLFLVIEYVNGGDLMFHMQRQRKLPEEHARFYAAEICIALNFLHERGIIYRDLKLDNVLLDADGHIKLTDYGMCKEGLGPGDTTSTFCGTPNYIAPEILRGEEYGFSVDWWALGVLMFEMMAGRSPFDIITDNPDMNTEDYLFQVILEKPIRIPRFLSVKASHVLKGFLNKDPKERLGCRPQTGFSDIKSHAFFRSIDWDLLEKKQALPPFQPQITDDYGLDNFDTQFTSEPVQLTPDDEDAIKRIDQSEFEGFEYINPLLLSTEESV
# Procedure: as §2, §3, §4, §5
IC50 [1] [µM],IC50 [2] [µM],IC50 [3] [µM],IC50 [4] [µM],SMILES
0.94,76,1.7,70,NC(c1ccc(C(=O)Nc2ccncc2)cc1)C1CCCC1 (stereo not shown) [Compound 27]
2.6,> 100,7.7,> 100,NC(c1ccc(C(=O)Nc2ccncc2)cc1)C1CCCCC1 (stereo not shown) [Compound 28]
6.1,> 100,13.7,> 100,NC1CCCc2cc(C(=O)Nc3ccncc3)ccc21 (stereo not shown) [Compound 29]
9.8,> 100,17.2,> 100,"O=C(Nc1ccncc1)c1ccc(C2CCCN2)cc1 (stereo not shown) [Compound 30, N-pyridin-4-yl-4-pyrrolidin-2-yl-benzamide dihydrochloric acid salt]"
3.7,> 100,8.04,> 100,"O=C(Nc1ccncc1)c1ccc(C2CCCCN2)cc1 (stereo not shown) [Compound 31, 4-piperidin-2-yl-N-pyridin-4-yl-benzamide dihydrochloric acid salt]"
30.5,> 100,31.6,> 100,"O=C(Nc1ccncc1)c1ccc2c(c1)CCNC2 [Compound 32, 1,2,3,4-tetrahydro-isoquinoline-6-carboxylic acid pyridinedin-4-yl-amide dihydrochloric acid salt]"
62,> 100,53.5,> 100,"O=C(Nc1ccncc1)c1ccc(C2=NCCN2)cc1 [Compound 33, 4-(4,5-dihydro-1H-imidazol-2-yl)-N-pyridin-4-yl-benzamide]"
19.5,> 100,75,> 100,"O=C(Nc1ccncc1)c1ccc(C2=NCCCN2)cc1 [Compound 34, N-pyridin-4-yl-4-(1,4,5,6-tetrahydro-1H-pyrimidin-2-yl)-benzamide]"
8.04,> 100,11.3,> 100,"NC(c1ccccc1)c1ccc(C(=O)Nc2ccncc2)cc1 (stereo not shown) [Compound 35, 4-(1-amino-phenyl-methyl)-N-pyridin-4-yl-benzamide]"
9.5,> 100,28.9,> 100,"NC(c1ccc(F)cc1)c1ccc(C(=O)Nc2ccncc2)cc1 (stereo not shown) [Compound 36, 4-[1-amino-(4-fluorophenyl)-methyl]-N-pyridin-4-yl-benzamide dihydrochloric acid salt]"
18.7,> 100,80.3,> 100,"COc1ccc(C(N)c2ccc(C(=O)Nc3ccncc3)cc2)cc1 (stereo not shown) [Compound 37, 4-[1-amino-(4-methoxyphenyl)-methyl]-N-pyridin-4-yl-benzamide]"
2.5,> 100,7.8,6.4,"CC(N)c1ccc(C(=O)Nc2ccncc2)c2ccccc12 (stereo not shown) [Compound 38, 4-(1-amino-ethyl)-naphthalene-1-carboxylic acid pyridinedin-4-ylamide dihydrochloric acid salt]"
0.4,11.3,0.77,> 100,"CC(N)c1ccc(C(=O)Nc2ccnc3[nH]ccc23)cc1 (stereo not shown) [Compound 41, 4-(1-amino-ethyl)-N-(1H-pyrrolo[2,3pyridinedin-4-yl)-benzamidedihydrochloric acid salt]"
0.3,17.3,0.63,> 100,NC(c1ccc(C(=O)Nc2ccnc3[nH]ccc23)cc1)C1CCCC1 (stereo not shown) [Compound 42]
9.9,21.8,8.6,> 100,O=C(Nc1ccnc2[nH]ccc12)c1ccc2c(c1)CCNC2 [Compound 43]
1.6,30.7,2.2,> 100,"O=C(Nc1ccnc2[nH]ccc12)c1ccc(C2CCCCN2)cc1 (stereo not shown) [Compound 44, 4-piperidin-2-yl-N-(1H-pyrrolo[2,3pyridinedin-4-yl)-benzamidedihydrobromic acid salt]"
